# Reference: patent publication US20090292021A1, “ANTICONVULSIVE PHARMACEUTICAL COMPOSITIONS” (INSERM (INSTITUT NATIONAL DE LA SANTE ET DE LA REC, priority 2006, published 2009)
# Columns and labels:
# Format in all cases: in vivo, rat
# Wistar rats [1] = assay: Flicker ERG recording in VGB-treated rats; conditions: for decrease of flicker ERG amplitude: vs before treatment
# Procedure: (§1) As described previously Duboc, A., Hanoteau, N., Simonutti, M., Rudolf, G., Nehlig, A., Sahel, J. A., Picaud, S. (2004). “Vigabatrin, the GABA-transaminase inhibitor, damages cone photoreceptors in rats.” Annals of Neurology 55(5): 695-705), Wistar rats Rj Wi IOPS Han were purchased from Janvier Breeding Center (Le Genest St Isle, France) at 7 weeks and acclimatised for 2 weeks. VGB was dissolved in 0.9% NaCl at a concentration of 125 mg/ml. It was injected daily and intraperitonealy at a final dose of 250 mg/kg. To investigate the progression of visual defects with the treatment duration, rats of the same age were divided in five groups and treated with the drug for different times as described in table 1 hereunder.
# Flicker ERGs were recorded on each animal before the treatment, at the end of the VGB treatment, and 4-day later. For the study of functional recovery after VGB withdrawal, flicker ERGs were recorded before the treatment, at 35-day of treatment, 16-day recovery and 60-day recovery period.
# Animals were kept in the dark room for at least 12 hours and handled under dim red light. They were anaesthetized by an intraperitoneal (i.p) injection (1 to 1.5 ml/kg) of a solution containing ketamine (40 mg/ml) and xylazine (4 mg/ml Rompum). Pupils were dilated with a drop of 0.5% tropicamide, and the cornea was locally anaesthetized with a drop of 0.4% chlorhydrate d'oxybupropacaïne. Measurements were obtained from the right eye of animals laid on a temperature controlled blanket. The measuring electrode, a gold ring covered with a plastic contact lens, was placed on the cornea and a tight electrical contact was obtained by addition of methylcellulose. The reference and ground electrodes made from needles were subcutaneously inserted at the head and the tail respectively. Finally, the whole animal was placed in a Ganzfeld bowl delivering light stimuli (Toennies Multiliner Vision, Höchberg, Germany). For flickering ERG measurements, animals were adapted for 10 minutes to a white background light at a 25 cdm^−2 to suppress rod responses. Flicker responses were obtained with 50 white light flashes at a 2.5 cdsm^−2 intensity and a 15 Hz flickering frequency (High pass filter 1 Hz and low pass filter 300 Hz). Amplitude and implicit time responses of the flicker ERG were measured at the first maximum positive peak with respect to the light onset.
# Wistar rats [2] = assay: Exploration of eye fundus with scanning laser ophthalmoscope (SLO)
# Procedure: as §1
# Examination of the eye fundus was performed with a Scanning Laser Opthalmoscope (SLO) (HRA, Heidelberg, Dossenheim, Allemagne). Pupils were dilated with a drop of 0.5% tropicamide. During the examination an experimenter hold the animal to point the eye in the axis of camera. To limit animal stress, the duration of examination was minimized and these short sequences were alternated with rests periods. Eye fundus in each animal eye was examined in unanaesthetized rats with the 534 nm laser light beam using a filter to decrease its intensity. Fundus autofluorescence was obtained with the 488 nm laser beam.
# Wistar rats [3] = assay: Indocyanine green (ICG) angiography of choroidal vessels
# Procedure: as §1
# For ICG angiography, animals were anesthetized as above. A solution of Infracyanine (0.1 ml, 5 mg/ml, Société d'Etude et de Recherche Biologiques, Paris, France) dissolved in distilled water was injected intravenously. Images were obtained with the 795 nm laser light immediately after the injection.
# Wistar rats [4] = assay: Length of disorganized outer retina on DAPI-stained retinal sections; conditions: treatment of 45 days, mean ± S.E.M, n=8
# Procedure: as §1
# After the animal sacrifice, the cornea was branded at the upper side to orient the eye cup. The eyes were dissected, the cornea and lens removed and a nick was made on the upper side of the eye cup. Eye cups were embedded in OCT (Labonord, Villeneuve d'Ascq, France) to prepare cryosection (Duboc et al 2004, Supra). Dorso-ventral retinal sections passing through the optic nerve were stained with Diamidi-phenyl-indole (DAPI). […] The retinal length showing displaced photoreceptor nuclei was measured on both part of the optic nerve on the retina of VGB-treated rat.
# Wistar rats [5] = assay: Immunolabeling of retinal sections: cone arrestin (cone count) and G0α (ON bipolar cells); conditions: treated for 45 days
# Procedure: as §1
# After the animal sacrifice, the cornea was branded at the upper side to orient the eye cup. The eyes were dissected, the cornea and lens removed and a nick was made on the upper side of the eye cup. Eye cups were embedded in OCT (Labonord, Villeneuve d'Ascq, France) to prepare cryosection (Duboc et al 2004, Supra). Dorso-ventral retinal sections passing through the optic nerve were stained with Diamidi-phenyl-indole (DAPI). The DAPI-nuclear staining was visualized on a Leica microscope (20× objective) and digitalized on a camera coupled to optical image analysis software (Analysis program). The retinal length showing displaced photoreceptor nuclei was measured on both part of the optic nerve on the retina of VGB-treated rat.
# For immunolabeling, the oriented retinal sections were permeabilized for 5 minutes in PBS containing 0.1% Triton X-100 (Sigma, St Louis, Mo.), rinsed and incubated in PBS containing 1% bovine serum albumin (Eurobio, Les-Ulis, France), 0.1% Tween 20 (Sigma) and 0.1% sodium azide (Merck, Fontenay-Sous-Bois) for 2 hours at room temperature. The primary antibodies added to the solution were incubated for 2 hours at room temperature. Antibodies used were the anti-VEGF rabbit polyclonal antibody (1:400, Ab-1, NeoMarkers, Interchim, France), the monoclonal anti-vimentin antibody (1:400, cloneV9, DAKO, France), the polyclonal mCAR antibody (1:10,000; a gift from Dr Cheryl Craft (Keck School of Medicine of the University of Southern California, Los Angeles, USA)), and the monoclonal anti-G0-α antibody (1:500, Chemicon). After several washes, sections were incubated with the secondary antibodies, goat anti-rabbit IgG conjugated to Alexa TM 594 and goat anti-mouse IgG conjugated to Alexa TM 488 (1:500, (Molecular Probes, Eugene, Oreg.) for 2 hours. The nuclear dye, DAPI, was added in an incubation solution. Sections were mounted with the Fluorsave reagent (Calbiochem, San Diego, Calif.).
# Wistar rats [6] = assay: VEGF immunolabeling of retinal sections; conditions: VGB-treated vs control animals
# Procedure: as §1
# After the animal sacrifice, the cornea was branded at the upper side to orient the eye cup. The eyes were dissected, the cornea and lens removed and a nick was made on the upper side of the eye cup. Eye cups were embedded in OCT (Labonord, Villeneuve d'Ascq, France) to prepare cryosection (Duboc et al 2004, Supra). Dorso-ventral retinal sections passing through the optic nerve were stained with Diamidi-phenyl-indole (DAPI). […] The retinal length showing displaced photoreceptor nuclei was measured on both part of the optic nerve on the retina of VGB-treated rat. […]
smiles,measurement,setting,value
"C=CC(N)CCC(=O)O (centres unmarked) [VGB, 4-amino-5-hexenoic acid]",flicker ERG amplitude,"Wistar rats [1]; 15-day treatment, after 4-day recovery period",51 μV
same,flicker ERG amplitude,"Wistar rats [1]; 25-day treatment, after 4-day recovery period",38 μV
same,flicker ERG amplitude,"Wistar rats [1]; 35-day treatment, after 4-day recovery period",50 μV
same,flicker ERG amplitude,"Wistar rats [1]; end of 5-day treatment, 250 mg/kg daily i.p.",83 μV
same,flicker ERG amplitude,"Wistar rats [1]; end of 15-day treatment, 250 mg/kg daily i.p.",52 μV
same,decrease of flicker ERG amplitude,Wistar rats [1]; end of 15-day treatment,45%
same,flicker ERG amplitude,"Wistar rats [1]; end of 25-day treatment, 250 mg/kg daily i.p.",21 μV
same,decrease of flicker ERG amplitude,Wistar rats [1]; end of 25-day treatment,79%
same,flicker ERG amplitude,"Wistar rats [1]; end of 35-day treatment, 250 mg/kg daily i.p.",29 μV
same,decrease of flicker ERG amplitude,Wistar rats [1]; end of 35-day treatment,71%
same,flicker ERG amplitude,"Wistar rats [1]; recovery study, 35-day treatment, 16-day recovery",84 μV
same,reduction of flicker ERG,"Wistar rats [1]; recovery study, 35-day treatment, 16-day recovery, vs value before treatment",31%
same,flicker ERG amplitude,"Wistar rats [1]; recovery study, 35-day treatment, 60-day recovery",88 μV
same,reduction of flicker ERG,"Wistar rats [1]; recovery study, 35-day treatment, 60-day recovery, vs value before treatment",28%
same,flicker ERG amplitude,"Wistar rats [1]; recovery study, 35-day treatment, immediately after treatment, n=6",51 μV
same,reduction of flicker ERG,"Wistar rats [1]; recovery study, 35-day treatment, immediately after treatment, vs beginning of experiment",58%
same,"retinal autofluorescence, SLO","Wistar rats [2]; 488 nm laser, in vivo",fluorescent spots were observed in the modified areas in two rats
same,"modified retinal areas at eye fundus, SLO",Wistar rats [2]; after arresting the VGB treatment for one month (n=2),remained visible
same,"modified retinal areas (dark/grey network) at eye fundus, green laser SLO","Wistar rats [2]; after treatment of 25 days (n=4), 35 days (n=1) and 55 days (n=4)",present in all animals examined
same,"modified retinal areas at eye fundus, SLO",Wistar rats [2]; animals treated for 5 days (n=1) or 11 days (n=3),No such modified areas were detected
same,size or aspect of the choroidal vasculature,Wistar rats [3]; after treatment of 25 (n=4) and 55 days (n=4),no change in the size or aspect of the choroidal vasculature could be detected
same,ICG fluorescence in areas showing modified eye fundus after extravasation,Wistar rats [3]; animals treated for 55 days,inhomogeneous fluorescent image
same,"length of disorganized outer retina, lower pole",Wistar rats [4],70 μm
same,"length of disorganized outer retina, upper pole",Wistar rats [4],1106 μm
same,ON bipolar cells labeled with G0α antibody,Wistar rats [5],some cells were observed to send a process into the ONL
same,"cone morphology, cone arrestin labelling",Wistar rats [5],many cones were observed to be truncated
same,decrease in density of cones vs control rats,Wistar rats [5]; cone arrestin immunolabeling,18.7%
same,density of cones,"Wistar rats [5]; cone arrestin immunolabeling, n=7",12.34±0.36 cells/300 μm
same,VEGF expression in retina (Müller glial cells),Wistar rats [6],increase in VEGF expression
